Values joined by “and” are separate entries in the source; they are usually repeats but may differ in a detail not shown here. Equal entries are not always repeated. Inconclusive results and toxic doses are left out.
Tested on: BDF1 mice, P388 leukemia ip, median survival T/C
Test: NCI In Vivo Anticancer Drug Screen. Data for tumor model P388 Leukemia (intraperitoneal) in B6D2F1 (BDF1) mice
Conditions: endpoint: median survival time, higher = longer survival
Experimental: The antitumor activity of compounds was measured in mice bearing transplantable tumors. Survival or tumor size were measured and the results are expressed as the measurement made in the treated group (T) divided by the measurement made in the vehicle treated control group (C). The tumor model used in this assay is P388 Leukemia (intraperitoneal) in B6D2F1 (BDF1) mice

[1] = dose: 50.0 mg/kg/injection, schedule: Q01DX009 (ip), vehicle: saline with Tween-80
[2] = dose: 100.0 mg/kg/injection, schedule: Q01DX009 (ip), vehicle: saline with Tween-80
[3] = dose: 200.0 mg/kg/injection, schedule: Q01DX009 (ip), vehicle: saline with Tween-80
[4] = dose: 12.5 mg/kg/injection, schedule: Q01DX009 (ip), vehicle: saline with Tween-80
[5] = dose: 25.0 mg/kg/injection, schedule: Q01DX009 (ip), vehicle: saline with Tween-80
[6] = dose: 50.0 mg/kg/injection, schedule: Q01DX009 (ip), vehicle: Klucel (hydroxypropylcellulose) (HPC)
[7] = dose: 50.0 mg/kg/injection, schedule: Q01DX009 (ip), vehicle: saline
[8] = dose: 50.0 mg/kg/injection, schedule: Q04DX003 (ip), vehicle: Klucel (hydroxypropylcellulose) (HPC)
[9] = dose: 100.0 mg/kg/injection, schedule: Q04DX003 (ip), vehicle: Klucel (hydroxypropylcellulose) (HPC)
[10] = dose: 200.0 mg/kg/injection, schedule: Q04DX003 (ip), vehicle: Klucel (hydroxypropylcellulose) (HPC)
[11] = dose: 100.0 mg/kg/injection, schedule: Q04DX003 (ip), vehicle: saline with Tween-80
[12] = dose: 200.0 mg/kg/injection, schedule: Q04DX003 (ip), vehicle: saline with Tween-80
[13] = dose: 400.0 mg/kg/injection, schedule: Q04DX003 (ip), vehicle: saline with Tween-80
[14] = dose: 100.0 mg/kg/injection, schedule: Q04DX003 (ip), vehicle: saline
[15] = dose: 200.0 mg/kg/injection, schedule: Q04DX003 (ip), vehicle: saline
[16] = dose: 400.0 mg/kg/injection, schedule: Q04DX003 (ip), vehicle: saline
[17] = dose: 100.0 mg/kg/injection, schedule: Q01DX009 (ip), vehicle: saline
[18] = dose: 200.0 mg/kg/injection, schedule: Q01DX009 (ip), vehicle: saline
[19] = dose: 400.0 mg/kg/injection, schedule: Q01DX009 (ip), vehicle: saline with Tween-80
[20] = dose: 400.0 mg/kg/injection, schedule: Q04DX003 (ip), vehicle: Klucel (hydroxypropylcellulose) (HPC)
[21] = dose: 100.0 mg/kg/injection, schedule: Q01DX009 (ip), vehicle: Klucel (hydroxypropylcellulose) (HPC)
[22] = dose: 200.0 mg/kg/injection, schedule: Q01DX009 (ip), vehicle: Klucel (hydroxypropylcellulose) (HPC)
[23] = dose: 12.5 mg/kg/injection, schedule: Q01DX009 (ip), vehicle: water
[24] = dose: 25.0 mg/kg/injection, schedule: Q01DX009 (ip), vehicle: water
[25] = dose: 50.0 mg/kg/injection, schedule: Q01DX009 (ip), vehicle: water
[26] = dose: 50.0 mg/kg/injection, schedule: Q04DX003 (ip), vehicle: water
[27] = dose: 100.0 mg/kg/injection, schedule: Q01DX009 (ip), vehicle: water
[28] = dose: 100.0 mg/kg/injection, schedule: Q04DX003 (ip), vehicle: water

CCOC(=O)CC1=NN(C(=O)c2ccccc2)C(=NC(=O)c2ccccc2)SC1
T/C [1]: 99 % of control | T/C [2]: 101 % of control | T/C [3]: 90 % of control

CCC/C(C)=N/Nc1ccccn1
T/C (dose: 12.5 mg/kg/injection, schedule: Q01DX009 (ip), vehicle: Klucel (hydroxypropylcellulose) (HPC)): 105 % of control | T/C [4]: 95 % of control | T/C (dose: 25.0 mg/kg/injection, schedule: Q01DX009 (ip), vehicle: Klucel (hydroxypropylcellulose) (HPC)): 95 % of control and 110 % of control | T/C [5]: 100 % of control | T/C [6]: 100 % of control and 120 % of control | T/C [1]: 91 % of control and 118 % of control | T/C [7]: 120 % of control

CCC(C)Nc1ccccc1 (configuration not stated)
T/C [8]: 95 % of control | T/C [9]: 100 % of control | T/C [10]: 108 % of control

Cc1ccc(C(=O)CCCCl)cc1C
T/C [11]: 104 % of control | T/C [12]: 104 % of control | T/C [13]: 109 % of control

CCOC(=O)C1CC=CCC1C(=O)OCC (configuration not stated)
T/C [14]: 118 % of control | T/C [15]: 118 % of control | T/C [16]: 109 % of control

[Cl][Rh][Cl].[NH-]c1ccc(S(=O)(=O)Nc2ccccn2)cc1.[NH-]c1ccc(S(=O)(=O)Nc2ccccn2)cc1.[NH-]c1ccc(S(=O)(=O)Nc2ccccn2)cc1.[NH-]c1ccc(S(=O)(=O)Nc2ccccn2)cc1
T/C [11]: 108 % of control | T/C [12]: 94 % of control | T/C [13]: 91 % of control

O=C(CBr)OCCCS(=O)(=O)O
T/C (dose: 50.0 mg/kg/injection, schedule: Q04DX003 (ip), vehicle: saline): 95 % of control | T/C [14]: 104 % of control | T/C [15]: 100 % of control

O=C1C=C(NC2CCCCC2)CCC1
T/C [7]: 96 % of control | T/C [17]: 99 % of control | T/C [18]: 99 % of control

CC(Br)C(=O)NCC(=O)NCC(=O)O (configuration not stated)
T/C [17]: 108 % of control | T/C [14]: 108 % of control | T/C [18]: 91 % of control | T/C [15]: 91 % of control | T/C [16]: 87 % of control

CCOC(=O)C(C(=O)OCC)=C(C)C
T/C [9]: 100 % of control | T/C [10]: 88 % of control | T/C [19]: 150 % of control | T/C [20]: 103 % of control

Cc1cc(O)c(C(c2ccccn2)c2c(O)cc(C)[nH]c2=O)c(=O)[nH]1
T/C [4]: 95 % of control | T/C [5]: 90 % of control | T/C [1]: 100 % of control

CCS(=O)(=O)CCN1C(=O)CN=C(c2ccccc2F)c2cc(Cl)ccc21
T/C [4]: 114 % of control | T/C [5]: 96 % of control | T/C [1]: 103 % of control and 123 % of control | T/C [2]: 90 % of control and 107 % of control

CC(c1ccccc1)c1ccc(O)cc1 (configuration not stated)
T/C [1]: 110 % of control | T/C [2]: 110 % of control | T/C [14]: 100 % of control | T/C [3]: 110 % of control | T/C [15]: 91 % of control

CCN(CC)CCNC(=S)N/N=C(C)\C(C)=N/NC(=S)NCCN(CC)CC
T/C (dose: 6.25 mg/kg/injection, schedule: Q01DX009 (ip), vehicle: saline): 105 % of control | T/C (dose: 12.5 mg/kg/injection, schedule: Q01DX009 (ip), vehicle: saline): 105 % of control

O=[N+]([O-])c1ccc(NS(=O)(=O)c2cc(Cl)ccc2Cl)c(C(F)(F)F)c1
T/C [1]: 96 % of control | T/C [2]: 100 % of control

O=C(Nc1ccc(NC(=O)c2ccccc2)c(Sc2ccccc2)c1Sc1ccccc1)c1ccccc1
T/C (dose: 100.0 mg/kg/injection, schedule: Q01DX001 (ip), vehicle: saline with Tween-80): 90 % of control | T/C (dose: 400.0 mg/kg/injection, schedule: Q01DX001 (ip), vehicle: saline with Tween-80): 100 % of control

COc1cccc2c1C(=O)c1c(O)c3c(c(O)c1C2=O)C[C@@](O)(C(C)O)C[C@@H]3OC1CC(N(Cc2ccccc2)Cc2ccccc2)C(O)C(C)O1 (some centres not stated)
T/C (dose: 2.5 mg/kg/injection, schedule: Q01DX009 (ip), vehicle: water): 108 % of control | T/C (dose: 5.0 mg/kg/injection, schedule: Q01DX009 (ip), vehicle: water): 112 % of control | T/C (dose: 20.0 mg/kg/injection, schedule: Q01DX009 (ip), vehicle: water): 166 % of control | T/C (dose: 40.0 mg/kg/injection, schedule: Q01DX009 (ip), vehicle: water): 229 % of control

Cc1ccc(C)c(NC(=O)c2ccc(Cl)cc2Cl)c1
T/C (dose: 75.0 mg/kg/injection, schedule: Q01DX001 (ip), vehicle: other): 90 % of control | T/C (dose: 150.0 mg/kg/injection, schedule: Q01DX001 (ip), vehicle: other): 90 % of control

CCCCCCCCCCCC(=O)c1ccc(Cl)cc1
T/C [2]: 91 % of control | T/C [3]: 92 % of control | T/C [19]: 109 % of control

Clc1cccc(NC2=NCCN=C(Nc3cccc(Cl)c3Cl)SS2)c1Cl
T/C [1]: 102 % of control | T/C [2]: 100 % of control | T/C [3]: 96 % of control

Cc1cccc(N=P(c2ccccc2)(c2ccccc2)c2ccccc2)c1
T/C [6]: 109 % of control | T/C [8]: 109 % of control | T/C [21]: 118 % of control | T/C [9]: 100 % of control | T/C (dose: 133.0 mg/kg/injection, schedule: Q01DX009 (ip), vehicle: Klucel (hydroxypropylcellulose) (HPC)): 117 % of control | T/C [22]: 108 % of control | T/C [10]: 95 % of control

CN=C(NN(C)C)c1ccc(NC(=O)c2ccc(C(=O)Nc3ccc(C(=NC)NN(C)C)cc3)cc2)cc1
T/C (dose: 4.0 mg/kg/injection, schedule: Q01DX009 (ip), vehicle: saline with Tween-80): 100 % of control | T/C (dose: 9.0 mg/kg/injection, schedule: Q01DX009 (ip), vehicle: saline with Tween-80): 150 % of control

CC(C)(C)CC(=O)OCCC[N+](C)(C)[O-]
T/C (dose: 100.0 mg/kg/injection, schedule: Q01DX005 (ip), vehicle: water): 100 % of control | T/C (dose: 200.0 mg/kg/injection, schedule: Q01DX005 (ip), vehicle: water): 100 % of control

O=[N+]([O-])c1ccc2c3c(cccc13)-c1ccccc1-2
T/C [21]: 110 % of control | T/C [9]: 90 % of control | T/C [22]: 105 % of control | T/C [10]: 95 % of control | T/C (dose: 400.0 mg/kg/injection, schedule: Q01DX009 (ip), vehicle: Klucel (hydroxypropylcellulose) (HPC)): 100 % of control | T/C [20]: 100 % of control

O=C1c2ccccc2C(=O)N1c1cc(OCc2ccccc2)cc(OCc2ccccc2)c1
T/C (dose: 0.78 mg/kg/injection, schedule: Q01DX009 (ip), vehicle: water): 99 % of control and 103 % of control | T/C (dose: 1.56 mg/kg/injection, schedule: Q01DX009 (ip), vehicle: water): 96 % of control and 101 % of control | T/C (dose: 3.12 mg/kg/injection, schedule: Q01DX009 (ip), vehicle: water): 105 % of control and 120 % of control | T/C (dose: 6.25 mg/kg/injection, schedule: Q01DX009 (ip), vehicle: water): 96 % of control | T/C [23]: 95 % of control and 99 % of control and 112 % of control | T/C [24]: 99 % of control and 105 % of control | T/C [25]: 89 % of control and 117 % of control | T/C [26]: 94 % of control | T/C [27]: 96 % of control | T/C [28]: 99 % of control | T/C (dose: 200.0 mg/kg/injection, schedule: Q01DX009 (ip), vehicle: water): 88 % of control and 115 % of control | T/C (dose: 200.0 mg/kg/injection, schedule: Q04DX003 (ip), vehicle: water): 90 % of control | T/C (dose: 400.0 mg/kg/injection, schedule: Q01DX009 (ip), vehicle: water): 101 % of control | T/C (dose: 400.0 mg/kg/injection, schedule: Q04DX003 (ip), vehicle: water): 99 % of control

CC1=C(C)CC2C(=O)C=CC(=O)C2C1 (configuration not stated)
T/C [23]: 95 % of control | T/C [24]: 90 % of control | T/C (dose: 25.0 mg/kg/injection, schedule: Q04DX003 (ip), vehicle: water): 113 % of control | T/C [25]: 93 % of control | T/C [26]: 113 % of control | T/C [27]: 100 % of control | T/C [28]: 105 % of control and 112 % of control

Cc1nc2c(N)nn(C)c2nc1C
T/C [11]: 100 % of control | T/C [12]: 100 % of control
